According to patent US8912188B2, “Substituted quinoxaline carboxylic acids for the inhibition of PASK” (BioEnergenix, LLC, priority 2011, dated 2014):

How the values were obtained:
[1] = molecular target: T1, PASK (Invitrogen) (Homo sapiens, UniProt Q96RG2); assay: PAS Kinase FRET Assay; format: biochemical; conditions: PAS kinase TR-FRET assay (665 nm/615 nm), 2 hours at 25° C.; read-out: IC50 Kinase Domain
T1 construct: IC50 Kinase Domain; purchased Invitrogen

[2] = molecular target: T2, PASK (UniProt #Q96RG2; human recombinant N-terminal GST tagged construct, residues 879-1323) (Homo sapiens, UniProt Q96RG2); assay: PASK ATP Radiochemical Assay; format: biochemical; conditions: 33P-ATP, Myelin Basic Protein substrate, 120 min at room temperature, read-out: IC50 Kinase Domain
T2 construct: human recombinant N-terminal GST tagged construct, residues 879-1323; GST (N); host or cells: insect cells
T2 sequence (Q96RG2 879-1323, stated change not applied): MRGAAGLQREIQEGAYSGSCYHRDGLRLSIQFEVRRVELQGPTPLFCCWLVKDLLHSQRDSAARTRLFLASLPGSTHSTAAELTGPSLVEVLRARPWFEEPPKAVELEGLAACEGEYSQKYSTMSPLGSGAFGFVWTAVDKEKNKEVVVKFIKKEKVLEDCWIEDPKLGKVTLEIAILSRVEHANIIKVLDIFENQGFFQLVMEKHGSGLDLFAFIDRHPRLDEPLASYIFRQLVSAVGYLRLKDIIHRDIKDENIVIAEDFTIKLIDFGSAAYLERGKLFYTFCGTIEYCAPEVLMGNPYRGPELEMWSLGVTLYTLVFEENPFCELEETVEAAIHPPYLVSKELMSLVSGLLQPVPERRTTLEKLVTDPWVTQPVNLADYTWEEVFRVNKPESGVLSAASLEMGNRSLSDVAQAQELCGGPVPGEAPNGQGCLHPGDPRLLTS
Experimental: Biochemical Assay for hPASK Activity
PASK ATP Radiochemical Assay
Test compounds in DMSO are then added and the mixture, followed by delivery of ^33P-ATP (specific activity 0.01 μCi/μl final) to initiate the reaction. […] The entire reaction mixture is washed through onto a P81 Phosphocellulose paper and washed three times for 10 minutes in 75 mM phosphoric acid and once in methanol prior to drying and scintillation counting.

T1 sequence (Q96RG2 999-1251 limits assumed): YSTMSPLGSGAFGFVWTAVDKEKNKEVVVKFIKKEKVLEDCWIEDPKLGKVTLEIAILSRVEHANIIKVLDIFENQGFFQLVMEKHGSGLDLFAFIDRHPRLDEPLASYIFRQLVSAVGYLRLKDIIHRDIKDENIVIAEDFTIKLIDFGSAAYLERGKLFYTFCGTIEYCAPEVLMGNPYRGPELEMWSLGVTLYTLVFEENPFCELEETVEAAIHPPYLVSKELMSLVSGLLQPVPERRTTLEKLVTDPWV

Row | IC50 [1] [µM] | IC50 [2] [µM] | Structure (SMILES)
1 | < 10 | < 10 | C[C@H]1CCCN1c1nc2cc(C(=O)O)ccc2nc1-c1ccc(F)cc1F [Example 115, (S)-2-(2,4-Difluorophenyl)-3-(2-methylpyrrolidin-1-yl)quinoxaline-6-carboxylic acid]
2 | < 10 | < 10 | C[C@H]1CCCCN1c1nc2cc(C(=O)O)ccc2nc1-c1ccc(F)cc1F [Example 116, (S)-2-(2,4-Difluorophenyl)-3-(2-methylpiperidin-1-yl)quinoxaline-6-carboxylic acid]
3 | < 10 | < 10 | CC[C@H](C)N(C)c1nc2cc(C(=O)O)ccc2nc1-c1ccc(F)cc1 [Example 104, (S)-3-(sec-Butyl(methyl)amino)-2-(4-fluorophenyl)quinoxaline-6-carboxylic acid]
4 | < 10 | < 10 | CC(C)N(C)c1nc2cc(C(=O)O)ccc2nc1-c1ccc(-c2ccccc2)o1 [Example 77, 3-[Methyl(propan-2-yl)amino]-2-(5-phenylfuran-2-yl)quinoxaline-6-carboxylic acid]
5 | < 10 | < 10 | COC[C@H]1CCCN1c1nc2cc(C(=O)O)ccc2nc1-c1cc2cc(F)ccc2o1 [Example 68, 2-(5-Fluoro-1-benzofuran-2-yl)-3-[(2R)-2-(methoxymethyl)pyrrolidin-1-yl]quinoxaline-6-carboxylic acid]
6 | < 10 | < 10 | CC(C)N(C)c1nc2cc(C(=O)O)ccc2nc1-c1ccc(F)cc1F [Example 147, 2-(2,4-Difluorophenyl)-3-[methyl(propan-2-yl)amino]quinoxaline-6-carboxylic acid]
7 | < 10 | < 10 | C[C@@H]1CCCN1c1nc2cc(C(=O)O)ccc2nc1-c1ccc2c(c1)OCO2 [Example 87, (R)-2-(Benzo[d][1,3]dioxol-5-yl)-3-(2-methylpyrrolidin-1-yl)quinoxaline-6-carboxylic acid]
8 | < 10 | < 10 | C[C@H]1CCCN1c1nc2cc(C(=O)O)c(O)cc2nc1-c1ccc2[nH]ncc2c1 [Example 93, (S)-7-Hydroxy-2-(1H-indazol-5-yl)-3-(2-methylpyrrolidin-1-yl)quinoxaline-6-carboxylic acid]
9 | < 10 | < 10 | C[C@H]1CCCN1c1nc2cc(C(=O)O)ccc2nc1-c1ccc(F)c(F)c1 [Example 148, (S)-2-(3,4-Difluorophenyl)-3-(2-methylpyrrolidin-1-yl)quinoxaline-6-carboxylic acid]
10 | < 10 | < 10 | CC[C@H](C)N(C)c1nc2cc(C(=O)O)ccc2nc1-c1cc2cc(F)ccc2o1 [Example 69, (S)-3-(sec-Butyl(methyl)amino)-2-(5-fluorobenzofuran-2-yl)quinoxaline-6-carboxylic acid]
11 | < 10 | < 10 | CC[C@@H](C)N(C)c1nc2cc(C(=O)O)ccc2nc1-c1cc2cc(F)ccc2o1 [Example 74, (R)-3-(sec-Butyl(methyl)amino)-2-(5-fluorobenzofuran-2-yl)quinoxaline-6-carboxylic acid]
12 | < 10 | < 10 | Cc1c[nH]c2ccc(-c3nc4ccc(C(=O)O)cc4nc3N(C)C(C)C)cc12 [Example 86, 3-(Isopropyl(methyl)amino)-2-(3-methyl-1H-indol-5-yl)quinoxaline-6-carboxylic acid]
13 | < 10 | < 10 | O=C(O)c1ccc2nc(-c3ccc4c(c3)OC(F)(F)O4)c(N3CCCCCC3)nc2c1 [Example 51, 3-(Azepan-1-yl)-2-(2,2-difluoro-2H-1,3-benzodioxol-5-yl)quinoxaline-6-carboxylic acid]
14 | < 10 | < 10 | CN(c1nc2cc(C(=O)O)ccc2nc1-c1ccc(F)cc1)C1CCCCC1 [Example 108, 3-(Cyclohexyl(methyl)amino)-2-(4-fluorophenyl)quinoxaline-6-carboxylic acid]
15 | < 10 | < 10 | CCN(c1nc2cc(C(=O)O)ccc2nc1-c1ccc(F)cc1)C(C)C [Example 111, 3-(Ethyl(isopropyl)amino)-2-(4-fluorophenyl)quinoxaline-6-carboxylic acid]
16 | < 10 | < 10 | CC(C)N(C)c1nc2cc(C(=O)O)ccc2nc1-c1cc2cc(Cl)ccc2o1 [Example 19, 2-(5-Chlorobenzofuran-2-yl)-3-(isopropyl(methyl)amino)quinoxaline-6-carboxylic acid]
17 | < 10 | < 10 | O=C(O)c1ccc2nc(-c3ccc(F)cc3)c(N3CCCC[C@@H]3C(F)(F)F)nc2c1 [Example 106, 2-(4-Fluorophenyl)-3-[(2R)-2-(trifluoromethyl)piperidin-1-yl]quinoxaline-6-carboxylic acid]
18 | < 10 | < 10 | CN(c1nc2cc(C(=O)O)ccc2nc1-c1ccc2[nH]ccc2c1)C1CC1 [Example 64, 3-[Cyclopropyl(methyl)amino]-2-(1H-indol-5-yl)quinoxaline-6-carboxylic acid]

Row | IC50 [1] [µM] | IC50 [2] [µM] | Structure (SMILES)
19 | < 10 | < 10 | CN(c1nc2cc(C(=O)O)ccc2nc1-c1ccc(F)cc1)C(C)(C)C [Example 107, 3-(tert-Butyl(methyl)amino)-2-(4-fluorophenyl)quinoxaline-6-carboxylic acid]
20 | < 10 | < 10 | CCCN(CCC)c1nc2cc(C(=O)O)ccc2nc1-c1ccc(F)cc1 [Example 140, 3-(Dipropylamino)-2-(4-fluorophenyl)quinoxaline-6-carboxylic acid]
21 | < 10 | < 10 | CC(C)N(C)c1nc2cc(C(=O)O)ccc2nc1-c1cc2ccc(F)cc2o1 [Example 45, 2-(6-Fluoro-1-benzofuran-2-yl)-3-[methyl(propan-2-yl)amino]quinoxaline-6-carboxylic acid]
22 | < 10 | < 10 | O=C(O)c1ccc2nc(-c3cc4ccc(F)cc4o3)c(N3CCCCCC3)nc2c1 [Example 48, 3-(Azepan-1-yl)-2-(6-fluoro-1-benzofuran-2-yl)quinoxaline-6-carboxylic acid]
23 | < 10 | < 10 | CCN(CC)c1nc2cc(C(=O)O)ccc2nc1-c1ccc(F)cc1 [Example 113, 3-(Diethylamino)-2-(4-fluorophenyl)quinoxaline-6-carboxylic acid]
24 | < 10 | < 10 | CC(C)N(C)c1nc2cc(C(=O)O)ccc2nc1-c1cc[nH]c1 [Example 81, 3-[Methyl(propan-2-yl)amino]-2-(1H-pyrrol-3-yl)quinoxaline-6-carboxylic acid]
25 | < 10 | < 10 | C[C@H]1CCCCN1c1nc2cc(C(=O)O)ccc2nc1-c1ccc2[nH]ccc2c1 [Example 73, (S)-2-(1H-Indol-5-yl)-3-(2-methylpiperidin-1-yl)quinoxaline-6-carboxylic acid]
26 | < 10 | < 10 | CN(c1nc2cc(C(=O)O)ccc2nc1-c1ccc(F)cc1)C1CCC1 [Example 146, 3-(Cyclobutyl(methyl)amino)-2-(4-fluorophenyl)quinoxaline-6-carboxylic acid]
27 | < 10 | < 10 | C[C@H]1CCCN1c1nc2cc(C(=O)O)ccc2nc1-c1cc2cc(F)ccc2s1 [Example 55, (S)-2-(5-Fluorobenzo[b]thiophen-2-yl)-3-(2-methylpyrrolidin-1-yl)quinoxaline-6-carboxylic acid]
28 | < 10 | < 10 | CC(C)N(C)c1nc2cc(C(=O)O)ccc2nc1-c1cc(-c2ccccc2)co1 [Example 52, 3-[Methyl(propan-2-yl)amino]-2-(4-phenylfuran-2-yl)quinoxaline-6-carboxylic acid]
29 | < 10 | < 10 | CN(c1nc2cc(C(=O)O)ccc2nc1-c1cc2cc(F)ccc2o1)C1CC1 [Example 61, 3-[Cyclopropyl(methyl)amino]-2-(5-fluoro-1-benzofuran-2-yl)quinoxaline-6-carboxylic acid]
30 | < 10 | < 10 | C[C@H]1COCCN1c1nc2cc(C(=O)O)ccc2nc1-c1ccc2[nH]ccc2c1 [Example 66, (S)-2-(1H-Indol-5-yl)-3-(3-methylmorpholino)quinoxaline-6-carboxylic acid]
31 | < 10 | < 10 | Cc1coc2ccc(-c3nc4ccc(C(=O)O)cc4nc3N(C)C(C)C)cc12 [Example 85, 3-[Methyl(propan-2-yl)amino]-2-(3-methyl-1-benzofuran-5-yl)quinoxaline-6-carboxylic acid]
32 | < 10 | < 10 | CC(C)N(C)c1nc2cc(C(=O)O)ccc2nc1-c1cc2ccccc2s1 [Example 23, 2-(Benzo[b]thiophen-2-yl)-3-(isopropyl(methyl)amino)quinoxaline-6-carboxylic acid]
33 | < 10 | < 10 | CC(=O)Nc1ccc(-c2nc3ccc(C(=O)O)cc3nc2N(C)C(C)C)cc1 [Example 149, 2-(4-Acetamidophenyl)-3-[methyl(propan-2-yl)amino]quinoxaline-6-carboxylic acid]
34 | < 10 | < 10 | Cc1cc2cc(-c3nc4ccc(C(=O)O)cc4nc3N(C)C3CC3)ccc2[nH]1 [Example 89, 3-[Cyclopropyl(methyl)amino]-2-(2-methyl-1H-indol-5-yl)quinoxaline-6-carboxylic acid]
35 | < 10 | < 10 | C[C@@H]1CCCCN1c1nc2cc(C(=O)O)ccc2nc1-c1ccc(F)cc1 [Example 121, (R)-2-(4-Fluorophenyl)-3-(2-methylpiperidin-1-yl)quinoxaline-6-carboxylic acid]
